Results as given in patent US20200316091A1, “METHOD FOR PROVIDING CONTRACEPTION” (LABORATOIRE HRA-PHARMA, priority 2019, published 2020).

What was measured:
ovulation in women = conditions: COC started two days after ulipristal acetate intake; cited from earlier work
[1] = system: ovarian activity and ovulation in women; experiment: Prospective, randomized, parallel-group clinical study of ovarian activity after ellaOne taken after three missed COC pills; type: in vivo; conditions: for ovulation with risk of pregnancy: Arm 1, COC resumed same day as UPA 30 mg, any time of experimental cycle, N=26
Description: To determine the effect on ovarian activity and ovulation, of waiting five days before re-starting combined oral contraception (COC), or restarting immediately, having taken ulipristal acetate (UPA) for emergency contraception (EC) after missing three COC pills.
Women were enrolled for three cycles of COC use in a 21/7 regimen. In cycle 3 all women omitted COC pills for three consecutive days (days 5, 6, 7) and on day 8 took UPA-EC (30 mg). Half the women restarted their COC pills that same day while the remainder waiting for five days before restarting. Transvaginal ultrasound (TVUS) and blood sampling for estrogen and progesterone (E and P) was undertaken in all women on days 4, 8, 11, 13, 15, 18, 22 and 26. If a follicle of >13 mm diameter was seen, TVUS and blood sampling were performed daily until a post-ovulatory follicle was seen.
Women aged 18-30, weighing ≤30 kg/m^2 participated in the study during use of three consecutive packets of COCP. Women with contraindications to the COC or with conditions associated with anovulation (e.g. polycystic ovarian syndrome), and women who were breastfeeding or using any other hormonal contraception or an intrauterine device (IUD) were excluded. Screening was undertaken during cycle 1. Throughout the study women kept a daily diary of pill intake and vaginal bleeding. All women were instructed to take their pills at the same time every evening and to follow standard rules during the first two cycles of pill use for missed pills or for vomiting after taking a pill. The duration of COC intake in cycle 1 was adjusted (to no less than 14 and no more than 21 pills) to allow the first day of cycle 2 (baseline cycle—BSL) to fall on a weekday. After a seven-day hormone free interval (HFI) all women switched to the study COC containing 30 μg ethinyl estradiol/150 μg levonorgestrel with seven placebo tablets. Cycle three (Experimental cycle—EXP), started after a seven-day HFI at the end of BSL. After transvaginal ultrasound (TVUS) on day 1 of pill intake women were randomized so that an equal number of women with ovarian follicles of diameter ≤10 mm, or >10 mm and ≤13 mm or >13 mm were allocated to one of two study arms. After 4 days of COC, all women deliberately missed their COC pill on three consecutive days (5, 6, 7) and on the morning of day 8 all took a single 30 mg tablet of ellaOne® (ulipristal acetate 30 mg). Women in arm 1 of the study (immediate re-start) resumed daily COC intake that evening (D8) while those in arm 2 waited 5 days, re-starting their OC pill on the evening of D13 (delayed re-start). Once restarted, the COCP was continued until the packet was finished. A high sensitivity urinary pregnancy test was undertaken on day 1 of BSL and EXP and at the final study visit one or two days after the HFI following the end of the pill pack. Adverse event information was collected at every visit and blood sampling for haemoglobin and liver function was performed four times during the study.
An ovarian activity score developed from the Hoogland score (Hoogland and Skouby 1993, Contraception, 1993. 47(6): p. 583-90). The ovary was considered quiescent (OSq) if estradiol concentration was ≤0.1 nmol/L and progesterone ≤5 nmol/L even if a follicle of >13 mm was present. […] Ovulation was considered at risk of pregnancy (OSp) if there was a postovulatory image on TVUS and progesterone concentrations were >30 nmol/L on one occasion or between 10-30 nmol/L on two consecutive occasions.
The proportion of women who were at risk of pregnancy (OSp) at any time during the experimental cycle, including those who ovulated within the five days following ellaOne® intake, was estimated and the exact (Clopper-Pearson) two-sided 95% confidence interval was provided for each arm. The difference between the two arms was tested through an exact without stratum adjustment due to insufficient number of women in the self-weighted strata. […]

[2] = Arm 1 immediate COCP re-start (D8), experimental cycle D 1
[3] = Arm 1 immediate COCP re-start (D8), experimental cycle D 4
[4] = Arm 1 immediate COCP re-start (D8), experimental cycle D 8
[5] = Arm 1 immediate COCP re-start (D8), experimental cycle D 11
[6] = Arm 1 immediate COCP re-start (D8), experimental cycle D 13
[7] = Arm 1 immediate COCP re-start (D8), experimental cycle D 15
[8] = Arm 1 immediate COCP re-start (D8), experimental cycle D 18
[9] = Arm 1 immediate COCP re-start (D8), experimental cycle D 22
[10] = Arm 1 immediate COCP re-start (D8), experimental cycle D 26
[11] = Arm 2 delayed COCP re-start (D13), experimental cycle D 1
[12] = Arm 2 delayed COCP re-start (D13), experimental cycle D 4
[13] = Arm 2 delayed COCP re-start (D13), experimental cycle D 8
[14] = Arm 2 delayed COCP re-start (D13), experimental cycle D 11
[15] = Arm 2 delayed COCP re-start (D13), experimental cycle D 13
[16] = Arm 2 delayed COCP re-start (D13), experimental cycle D 15
[17] = Arm 2 delayed COCP re-start (D13), experimental cycle D 18
[18] = Arm 2 delayed COCP re-start (D13), experimental cycle D 22
[19] = Arm 2 delayed COCP re-start (D13), experimental cycle D 26

## CC(=O)O[C@]1(C(C)=O)CC[C@H]2[C@@H]3CCC4=CC(=O)CCC4=C3[C@@H](c3ccc(N(C)C)cc3)C[C@@]21C [ellaOne, 17α-acetoxy-11β-[4-N,N-dimethylamino-phenyl]-19-norpregna-4,9-diene-3,20-dione]
Ovulation in women
  effect of starting COC on efficacy of ulipristal acetate to inhibit or delay ovulation: significantly impairs efficacy
[1]; listed as Ella
  ovulation with risk of pregnancy: no ovulation at risk of pregnancy occurred
[1]; listed as Ellaone
  ovulation with risk of pregnancy: no woman
[1]; Arm 1, immediate COC re-start, experimental cycle
  number of women with ovarian activity without risk of pregnancy (OSa): one
[1]; [2]
  OSa (ovarian activity not at risk of pregnancy), women with status/women monitored: 0/26
  OSp (ovulation at risk of pregnancy), women with status/women monitored: 0/26
  OSq (ovary quiescent), women with status/women monitored: 26/26
[1]; [3]
  OSa (ovarian activity not at risk of pregnancy), women with status/women monitored: 1/26
  OSp (ovulation at risk of pregnancy), women with status/women monitored: 0/26
  OSq (ovary quiescent), women with status/women monitored: 25/26
[1]; [4]
  OSa (ovarian activity not at risk of pregnancy), women with status/women monitored: 2/26
  OSp (ovulation at risk of pregnancy), women with status/women monitored: 0/26
  OSq (ovary quiescent), women with status/women monitored: 24/26
[1]; [5]
  OSa (ovarian activity not at risk of pregnancy), women with status/women monitored: 1/26
  OSp (ovulation at risk of pregnancy), women with status/women monitored: 0/26
  OSq (ovary quiescent), women with status/women monitored: 25/26
[1]; [6]
  OSa (ovarian activity not at risk of pregnancy), women with status/women monitored: 1/26
  OSp (ovulation at risk of pregnancy), women with status/women monitored: 0/26
  OSq (ovary quiescent), women with status/women monitored: 25/26
[1]; [7]
  OSa (ovarian activity not at risk of pregnancy), women with status/women monitored: 1/26
  OSp (ovulation at risk of pregnancy), women with status/women monitored: 0/26
  OSq (ovary quiescent), women with status/women monitored: 25/26
[1]; [8]
  OSa (ovarian activity not at risk of pregnancy), women with status/women monitored: 1/26
  OSp (ovulation at risk of pregnancy), women with status/women monitored: 0/26
  OSq (ovary quiescent), women with status/women monitored: 25/26
[1]; [9]
  OSa (ovarian activity not at risk of pregnancy), women with status/women monitored: 1/26
  OSp (ovulation at risk of pregnancy), women with status/women monitored: 0/26
  OSq (ovary quiescent), women with status/women monitored: 25/26
[1]; [10]
  OSa (ovarian activity not at risk of pregnancy), women with status/women monitored: 1/26
  OSp (ovulation at risk of pregnancy), women with status/women monitored: 0/26
  OSq (ovary quiescent), women with status/women monitored: 24/25
[1]; Arm 2, COC re-start delayed five days after UPA 30 mg, experimental cycle, CI 5.0-38.8, p=0.042 vs Arm 1
  proportion of women who ovulated with risk of pregnancy: 17.4%
[1]; Arm 2, COC re-start delayed five days, more than 5 days after UPA-EC, before end of experimental cycle, N=23
  number of women who ovulated with risk of pregnancy: Four
[1]; Arm 2, delayed COC re-start, remainder of experimental cycle
  number of women with resumption of follicle growth: Eight
[1]; [11]
  OSa (ovarian activity not at risk of pregnancy), women with status/women monitored: 1/23
  OSp (ovulation at risk of pregnancy), women with status/women monitored: 0/23
  OSq (ovary quiescent), women with status/women monitored: 22/23
[1]; [12]
  OSa (ovarian activity not at risk of pregnancy), women with status/women monitored: 3/23
  OSp (ovulation at risk of pregnancy), women with status/women monitored: 0/23
  OSq (ovary quiescent), women with status/women monitored: 20/23
[1]; [13]
  OSa (ovarian activity not at risk of pregnancy), women with status/women monitored: 4/23
  OSp (ovulation at risk of pregnancy), women with status/women monitored: 0/23
  OSq (ovary quiescent), women with status/women monitored: 19/23
[1]; [14]
  OSa (ovarian activity not at risk of pregnancy), women with status/women monitored: 6/23
  OSp (ovulation at risk of pregnancy), women with status/women monitored: 0/23
  OSq (ovary quiescent), women with status/women monitored: 17/23
[1]; [15]
  OSa (ovarian activity not at risk of pregnancy), women with status/women monitored: 5/22
  OSp (ovulation at risk of pregnancy), women with status/women monitored: 0/22
  OSq (ovary quiescent), women with status/women monitored: 17/22
[1]; [16]
  OSa (ovarian activity not at risk of pregnancy), women with status/women monitored: 7/23
  OSp (ovulation at risk of pregnancy), women with status/women monitored: 0/23
  OSq (ovary quiescent), women with status/women monitored: 16/23
[1]; [17]
  OSa (ovarian activity not at risk of pregnancy), women with status/women monitored: 8/23
  OSp (ovulation at risk of pregnancy), women with status/women monitored: 1/23
  OSq (ovary quiescent), women with status/women monitored: 14/23
[1]; [18]
  OSa (ovarian activity not at risk of pregnancy), women with status/women monitored: 2/23
  OSp (ovulation at risk of pregnancy), women with status/women monitored: 4/23
  OSq (ovary quiescent), women with status/women monitored: 17/23
[1]; [19]
  OSa (ovarian activity not at risk of pregnancy), women with status/women monitored: 4/23
  OSp (ovulation at risk of pregnancy), women with status/women monitored: 4/23
  OSq (ovary quiescent), women with status/women monitored: 15/23
[1]; COC resumed the same day as EllaOne 30 mg
  interference between the COC and EllaOne: no interference
